US20090118350A1, “Biomarkers for Identifying Efficacy of Tegaserod in Patients with Chronic Constipation” (priority 2005, published 2009)

Test system: patients with chronic constipation
Assay: Clinical trial, primary efficacy: mean increase of 1 or more CSBM/week over baseline after 4 weeks of treatment (responders), by subgroup and genotype
Assay type: in vivo, human
Conditions: for % Responders: 6-mg bid
Protocol: Introduction. A clinical trial was performed to evaluate the efficacy of tegaserod (Zelmac®/Zelnorm™) at 6 mg bid (12 mg/day) or 2 mg bid (4 mg/day) vs. placebo by measuring the number of complete spontaneous bowel movements (CSBM) during the first 4 weeks of treatment. Secondary objectives included evaluating the number of CSBM during the entire 12-week treatment period, bowel habits, laxative use, and safety and tolerability issues. The clinical trial design consisted of a 2-week baseline period without medication, a 12-week, randomized, double-blind, placebo-controlled treatment period, and a 4-week withdrawal period without study medication. As part of the clinical trial, DNA was collected from patients at screening for pharmacogenetic analysis to evaluate genetic polymorphisms relating to drug targets and disease aetiology.
Samples. A total 1348 patients were randomized as the intent-to-treat (ITT) population. Blood samples from these patients were collected at the time of patient screening and DNA was extracted using the PUREGENE™ DNA Isolation Kit (D-50K). Of these, samples from 738 randomized patients had good quality genotype data for at least half of the 55 SNPs evaluated.
Clinical assessments. […] The primary efficacy endpoint evaluated was the increase of 1 or more CSBM/week over baseline after 4 weeks of treatment. A secondary endpoint evaluated in this genotyping study was RESP12, the increase of 1 of more CSBM/week over baseline after 12 weeks of treatment. Patients were classified as responders if they met these criteria and had completed at least 7 days of treatment. Additional secondary efficacy assessments were evaluated based on the weekly diary assessments, such as bothersome constipation, bothersome abdominal pain, and satisfaction with bowel habits at the end of the 12-week treatment period (using the baseline value as a co-variant for analysis).
Genotyping. A total of 61 polymorphisms in 23 candidate genes were selected for analysis. Genotyping was performed using the TaqMan® technology for most of the assays, while a few were performed in-house using the Third Wave Technologies Invader Assay technique (see TABLE 2 for assay IDs for all evaluated SNPs). Of the 61 SNPs genotyped, 55 yielded good quality, polymorphic genotypes for use in further evaluation.
Statistical analysis. Statistical analysis was performed using SAS version 8.2 (The SAS Institute, Cary, N.C., USA). Analysis methods included Fisher's Exact tests, analysis of Covariance (ANCOVA), logistic regression, and Mantel-Haenzel tests to determine odds ratios and 95% confidence intervals, with significance established at p<0.05. Calculation of linkage disequilibrium was performed using the GOLD (graphical overview of linkage disequilibrium) method described by Abecasis & Cookson, Bioinformatics 16: 182-3 (2000).
Demographic comparisons. TABLE 3 presents the demographic breakdown of the patients in the overall clinical study and those included in this genotype analysis. Distributions were similar between the genotype population and the total patient population. […] Based on these findings, it was decided to limit analysis to the Caucasian population, which accounted for nearly 90% of all patients, to prevent a confounding effect of race on subsequent genotype analyses. Furthermore, the analysis was also limited to those intent-to-treat patients that were treated with tegaserod or placebo for at least 7 days (total of 635 patients).
Comparison of overall response rates. TABLE 4 presents the overall response for the primary efficacy endpoint (a mean increase in 1 or more CSBM/week over baseline after 4 weeks) for tegaserod 6-mg bid compared with placebo for both the overall patient population and the subgroup of patients for which we had genotype data (all races and Caucasians only). […]

[H]/N=C(/NCCCCC)N/N=C/c1c[nH]c2ccc(OC)cc12 [tegaserod, Tegaserod]
% Responders (4 weeks, All Caucasians (ITT, >=7 days), Age <65, M + F): 46% | % Responders (4 weeks, All Caucasians (ITT, >=7 days), Age >=65, M + F): 33% | % Responders (4 weeks, All Caucasians (ITT, >=7 days), Age All, Female): 46% | % Responders (4 weeks, All Caucasians (ITT, >=7 days), Age All, M + F): 45% | % Responders (4 weeks, All Caucasians (ITT, >=7 days), Age All, Male): 37% | % Responders (4 weeks, All genotyped (ITT, >=7 days), Age <65, M + F): 45% | % Responders (4 weeks, All genotyped (ITT, >=7 days), Age >=65, M + F): 50% | % Responders (4 weeks, All genotyped (ITT, >=7 days), Age All, Female): 45% | % Responders (4 weeks, All genotyped (ITT, >=7 days), Age All, M + F): 46% | % Responders (4 weeks, All genotyped (ITT, >=7 days), Age All, Male): 48% | % Responders (4 weeks, All patients (ITT, >=7 days), Age <65, M + F): 45% | % Responders (4 weeks, All patients (ITT, >=7 days), Age >=65, M + F): 35% | % Responders (4 weeks, All patients (ITT, >=7 days), Age All, Female): 45% | % Responders (4 weeks, All patients (ITT, >=7 days), Age All, M + F): 44% | % Responders (4 weeks, All patients (ITT, >=7 days), Age All, Male): 36% | % Responders (4 weeks, Caucasians genotyped (ITT, >=7 days), Age <65, M + F, all genotypes): 46% | % Responders (4 weeks, Caucasians genotyped (ITT, >=7 days), Age >=65, M + F, all genotypes): 47% | % Responders (4 weeks, Caucasians genotyped (ITT, >=7 days), Age All, Female, all genotypes): 45% | % Responders (4 weeks, Caucasians genotyped (ITT, >=7 days), Age All, M + F, all genotypes): 46% | % Responders (4 weeks, Caucasians genotyped (ITT, >=7 days), Age All, Male, all genotypes): 52% | % Responders (4 weeks, ITT Caucasians >=7 days, 0 of 14 SNPs): 32% | % Responders (4 weeks, ITT Caucasians >=7 days, >=1 of 14 SNPs): 53% | % Responders (4 weeks, ITT Caucasians >=7 days, AQP3 (PG ID 1838) genotype CC): 43% | % Responders (4 weeks, ITT Caucasians >=7 days, AQP3 (PG ID 1838) genotype CG): 47% | % Responders (4 weeks, ITT Caucasians >=7 days, AQP3 (PG ID 1838) genotype GG): 71% | % Responders (4 weeks, ITT Caucasians >=7 days, Female (All ages), 0 of the 12 SNPs): 33% | % Responders (4 weeks, ITT Caucasians >=7 days, Female (All ages), 1-12 of the 12 SNPs): 59% | % Responders (4 weeks, ITT Caucasians >=7 days, HTR3B (PG ID 3755) genotype AA): 46% | % Responders (4 weeks, ITT Caucasians >=7 days, HTR3B (PG ID 3755) genotype AC): 44% | % Responders (4 weeks, ITT Caucasians >=7 days, HTR3B (PG ID 3755) genotype CC): 67% | % Responders (4 weeks, ITT Caucasians >=7 days, HTR4 (PG ID 1746) genotype CC): 42% | % Responders (4 weeks, ITT Caucasians >=7 days, HTR4 (PG ID 1746) genotype CT): 44% | % Responders (4 weeks, ITT Caucasians >=7 days, HTR4 (PG ID 1746) genotype TT): 75% | % Responders (4 weeks, ITT Caucasians >=7 days, HTR4 (PG ID 3743) genotype AA): 43% | % Responders (4 weeks, ITT Caucasians >=7 days, HTR4 (PG ID 3743) genotype AC): 46% | % Responders (4 weeks, ITT Caucasians >=7 days, HTR4 (PG ID 3743) genotype CC): 78% | % Responders (4 weeks, ITT Caucasians >=7 days, HTR4 (PG ID 3747) genotype AA): 43% | % Responders (4 weeks, ITT Caucasians >=7 days, HTR4 (PG ID 3747) genotype AT): 45% | % Responders (4 weeks, ITT Caucasians >=7 days, HTR4 (PG ID 3747) genotype TT): 70% | % Responders (4 weeks, ITT Caucasians >=7 days, HTR4 (PG ID 3753) genotype CC): 43% | % Responders (4 weeks, ITT Caucasians >=7 days, HTR4 (PG ID 3753) genotype CT): 44% | % Responders (4 weeks, ITT Caucasians >=7 days, HTR4 (PG ID 3753) genotype TT): 75% | % Responders (4 weeks, ITT Caucasians >=7 days, HTR4 (PG ID 3754) genotype AA): 46% | % Responders (4 weeks, ITT Caucasians >=7 days, HTR4 (PG ID 3754) genotype AT): 42% | % Responders (4 weeks, ITT Caucasians >=7 days, HTR4 (PG ID 3754) genotype TT): 67% | % Responders (4 weeks, ITT Caucasians >=7 days, HTR4 (PG ID 3756) genotype AA): 39% | % Responders (4 weeks, ITT Caucasians >=7 days, HTR4 (PG ID 3756) genotype AC): 46% | % Responders (4 weeks, ITT Caucasians >=7 days, HTR4 (PG ID 3756) genotype CC): 71% | % Responders (4 weeks, ITT Caucasians >=7 days, M + F (<65), 0 of the 12 SNPs): 33% | % Responders (4 weeks, ITT Caucasians >=7 days, M + F (<65), 1-12 of the 12 SNPs): 61% | % Responders (4 weeks, ITT Caucasians >=7 days, M + F (>=65), 0 of the 12 SNPs): 14% | % Responders (4 weeks, ITT Caucasians >=7 days, M + F (>=65), 1-12 of the 12 SNPs): 70% | % Responders (4 weeks, ITT Caucasians >=7 days, M + F (All ages), 0 of the 12 high responder SNPs): 31% | % Responders (4 weeks, ITT Caucasians >=7 days, M + F (All ages), 1-12 of the 12 high responder SNPs): 62% | % Responders (4 weeks, ITT Caucasians >=7 days, MLN (PG ID 1783) genotype CC): 47% | % Responders (4 weeks, ITT Caucasians >=7 days, MLN (PG ID 1783) genotype CT): 40% | % Responders (4 weeks, ITT Caucasians >=7 days, MLN (PG ID 1783) genotype TT): 63% | % Responders (4 weeks, ITT Caucasians >=7 days, Male (All ages), 0 of the 12 SNPs): 20% | % Responders (4 weeks, ITT Caucasians >=7 days, Male (All ages), 1-12 of the 12 SNPs): 82% | % Responders (4 weeks, ITT Caucasians >=7 days, SCNN1A (PG ID 3806) genotype GG): 62% | % Responders (4 weeks, ITT Caucasians >=7 days, SCNN1A (PG ID 3806) genotype GT): 47% | % Responders (4 weeks, ITT Caucasians >=7 days, SCNN1A (PG ID 3806) genotype TT): 36% | % Responders (4 weeks, ITT Caucasians >=7 days, SLC12A2 (PG ID 1842) genotype AA): 69% | % Responders (4 weeks, ITT Caucasians >=7 days, SLC12A2 (PG ID 1842) genotype AG): 27% | % Responders (4 weeks, ITT Caucasians >=7 days, SLC12A2 (PG ID 1842) genotype GG): 51% | % Responders (4 weeks, ITT Caucasians >=7 days, SLC12A2 (PG ID 3801) genotype CC): 75% | % Responders (4 weeks, ITT Caucasians >=7 days, SLC12A2 (PG ID 3801) genotype CT): 27% | % Responders (4 weeks, ITT Caucasians >=7 days, SLC12A2 (PG ID 3801) genotype TT): 52% | % Responders (4 weeks, ITT Caucasians >=7 days, TPH1 (PG ID 1756) genotype GG): 51% | % Responders (4 weeks, ITT Caucasians >=7 days, TPH1 (PG ID 1756) genotype GT): 48% | % Responders (4 weeks, ITT Caucasians >=7 days, TPH1 (PG ID 1756) genotype TT): 36% | % Responders (4 weeks, ITT Caucasians >=7 days, TPH1 (PG ID 3784) genotype CC): 32% | % Responders (4 weeks, ITT Caucasians >=7 days, TPH1 (PG ID 3784) genotype CT): 49% | % Responders (4 weeks, ITT Caucasians >=7 days, TPH1 (PG ID 3784) genotype TT): 50% | rate of response (lower dose 2-mg bid, 4 weeks, compared with placebo and with 6-mg bid): the response was less than that seen for the 6-mg bid dose | Odds Ratio (the two other genotyped SCNN1A SNPs (near 5' end and near 3' end)): > 3.5
